Results on one compound are retold here after patent publication US10864154B2, “Skin care compositions and their applications” (SAMI LABS LIMITED, priority 2019, dated 2020).

The test system of assay [1] is B16F1 mouse melanoma cells. Briefly: Melanogenesis inhibition in α-MSH stimulated B16F1 cells (melanin at 405 nm). It is filed as cell-based. The settings on record: EAA alone, 72 hours. As for the experimental part:
The intracellular melanin in B16F1 mouse melanoma cells is extracted by 1N NaOH. The brown colored melanin thus extracted is estimated at 405 nm. The synthesis of melanin is inhibited in the presence of inhibitor which results in reduced absorbance at 405 nm.
MSH Stock was prepared at 1 mg/ml in distilled water. MSH at a final concentration of 1 nM was used to stimulate melanogenesis
B16F1 mouse melanoma cells were cultured for 24 hours in a 96 well microtiter plate at a seeding density of 5000 cells per well. Cells are treated with varying non cytotoxic concentrations of the sample over a period of 72 hours along with melanin stimulating hormone (∝-MSH) to induce the synthesis of melanin pigment. Untreated cells and cells without ∝-MSH addition were used as positive and negative control. The melanin produced by the cells was extracted by 1N NaOH and the absorbance was read at 405 nm in a Microplate reader. The inhibitory effect of the sample is calculated based on the degree of inhibition of melanin formation.
The results are expressed as IC50 values using Graph pad prism software. The percentage of inhibition of melanin is calculated as follows,
[formula] Where C-absorbance due to melanin in untreated cells
T-absorbance due to melanin in sample treated cells

In the next assay the target is T1, Mushroom Tyrosinase (Agaricus bisporus, UniProt C7FF04).
T1 construct: purchased Sigma
Description: Tyrosinase inhibition assay (L-Tyrosine substrate, absorbance at 492 nm). The assay is classed as biochemical. The conditions noted are these: EAA alone. As for the experimental part: Tyrosinase acts on L-Tyrosine forming a pink colored complex, the intensity of which is measured at 492 nm. The Tyrosinase activity in the presence and absence of inhibitor is assayed spectrophotometrically at 492 nm using a Microplate reader.
Mushroom Tyrosinase enzyme is prepared by dissolving entire content in […], pH 6.5 pre-chilled enzyme buffer to get […]. Gentle shaking for five minutes aids in dissolution of enzyme. Aliquot the stock into vials of 100 μl each and keep at −80° until use for at least 2 months. Multiple freeze-thaw cycles of the enzyme must be avoided.
A stock of 2.50 mM L-Tyrosine Disodium salt (Sigma) is prepared in 1.5 mM phosphate buffer (pH 6.5) by dissolving 2.845 mg/5 ml.
Samples were dissolved in DMSO and further dilutions were carried out in buffer
The assay was performed in a 96 well clear microtitre plate. Different concentrations of the composition comprising ethyl-ascorbic acid and tetrahydrocurcuminoids were pre incubated with 10 μl of […] stock Solution of Mushroom Tyrosinase (f.c. 6 U/well) at 37° C. for 10 minutes. The reaction is initiated by adding 2.5 mM L-Tyrosine disodium and the absorbance is read immediately every minute until 15 minutes using the microplate reader at 492 nm. A test blank well was prepared for each sample without the enzyme. Enzyme reaction with vehicle alone served as a control for enzyme activity. Kojic acid was used as a positive control.
The results are expressed as IC50 values using Graphpad prism software. The percentage of inhibition of melanin is calculated as follows,
Where C-absorbance in control and T-absorbance in test sample

T1 sequence (C7FF04 1-392 limits assumed): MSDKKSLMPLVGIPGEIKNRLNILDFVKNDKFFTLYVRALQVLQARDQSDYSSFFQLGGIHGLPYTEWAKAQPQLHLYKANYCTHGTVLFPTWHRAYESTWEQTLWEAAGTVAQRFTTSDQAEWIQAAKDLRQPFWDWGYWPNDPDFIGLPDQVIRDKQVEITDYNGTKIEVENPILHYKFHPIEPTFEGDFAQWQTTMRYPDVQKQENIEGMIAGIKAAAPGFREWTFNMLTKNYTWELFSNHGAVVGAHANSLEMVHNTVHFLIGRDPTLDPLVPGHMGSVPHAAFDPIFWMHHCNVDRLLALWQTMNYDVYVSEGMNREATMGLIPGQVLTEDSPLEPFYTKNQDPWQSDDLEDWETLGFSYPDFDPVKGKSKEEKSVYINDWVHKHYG

For `CCOC1=C(O)C(=O)O[C@@H]1[C@@H](O)CO` [Ethyl-ascorbic acid (EAA), 3-O-ethyl-ascorbic acid], the “% Inhibition of melanogenesis” value in assay [1] (0.625 μg/ml) is “Nil”; in assay [1] (0.625 μg/ml, listed as ethyl-ascorbic acid), “did not show any melanogenesis inhibition”; in assay [1] (1.25 μg/ml) it was “Nil”. Moreover, the “% Inhibition of tyrosinase activity” value on Mushroom Tyrosinase (62.5 μg/ml) and on Mushroom Tyrosinase (125 μg/ml) was “Nil” throughout. The same compound had an inhibition at 250 µg/mL against Mushroom Tyrosinase (250 μg/ml) of 11.6%. In addition, the inhibition at 500 µg/mL on Mushroom Tyrosinase (500 μg/ml) came out at 28.3%.
